{"source": "patent US20240398811A1", "about": "“PRC2 INHIBITORS FOR USE IN TREATING BLOOD DISORDERS” (ORIC Pharmaceuticals, Inc., priority 2021, published 2024)", "key": {"[1]": {"molecular_target": "purified human, His-tagged PRC2 complex (Homo sapiens (Human), UniProt O75530)", "sequence (O75530 whole entry)": "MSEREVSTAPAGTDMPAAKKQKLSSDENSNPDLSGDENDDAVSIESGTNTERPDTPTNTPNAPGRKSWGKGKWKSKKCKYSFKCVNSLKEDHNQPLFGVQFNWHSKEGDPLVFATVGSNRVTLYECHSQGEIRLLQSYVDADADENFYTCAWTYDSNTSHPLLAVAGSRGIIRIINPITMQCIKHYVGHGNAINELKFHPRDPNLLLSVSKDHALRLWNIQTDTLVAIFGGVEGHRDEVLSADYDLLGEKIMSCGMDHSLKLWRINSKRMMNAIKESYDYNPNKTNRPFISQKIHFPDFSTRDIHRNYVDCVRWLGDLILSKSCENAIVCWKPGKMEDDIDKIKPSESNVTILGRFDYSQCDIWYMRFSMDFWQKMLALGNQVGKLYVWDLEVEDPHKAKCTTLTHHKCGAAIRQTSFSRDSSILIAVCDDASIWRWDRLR", "sequence (Q15910 whole entry partner)": "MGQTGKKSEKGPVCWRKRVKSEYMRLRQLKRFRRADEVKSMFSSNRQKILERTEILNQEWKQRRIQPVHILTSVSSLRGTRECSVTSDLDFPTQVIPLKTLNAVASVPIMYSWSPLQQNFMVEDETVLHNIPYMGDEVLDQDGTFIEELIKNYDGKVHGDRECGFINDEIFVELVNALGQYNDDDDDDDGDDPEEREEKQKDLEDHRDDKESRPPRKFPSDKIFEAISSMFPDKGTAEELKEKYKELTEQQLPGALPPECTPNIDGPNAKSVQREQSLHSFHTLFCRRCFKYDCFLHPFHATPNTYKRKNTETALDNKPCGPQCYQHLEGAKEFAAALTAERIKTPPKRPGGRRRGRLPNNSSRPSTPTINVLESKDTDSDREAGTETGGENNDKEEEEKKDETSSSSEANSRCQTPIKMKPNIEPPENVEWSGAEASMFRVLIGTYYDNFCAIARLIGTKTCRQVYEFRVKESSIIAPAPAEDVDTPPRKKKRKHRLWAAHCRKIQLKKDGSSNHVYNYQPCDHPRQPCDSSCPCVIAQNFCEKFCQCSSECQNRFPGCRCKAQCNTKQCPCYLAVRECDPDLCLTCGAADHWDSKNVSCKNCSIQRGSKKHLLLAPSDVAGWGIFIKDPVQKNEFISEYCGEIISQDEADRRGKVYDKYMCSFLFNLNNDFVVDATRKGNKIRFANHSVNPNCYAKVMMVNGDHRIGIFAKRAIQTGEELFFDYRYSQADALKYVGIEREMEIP", "sequence (Q15022 whole entry partner)": "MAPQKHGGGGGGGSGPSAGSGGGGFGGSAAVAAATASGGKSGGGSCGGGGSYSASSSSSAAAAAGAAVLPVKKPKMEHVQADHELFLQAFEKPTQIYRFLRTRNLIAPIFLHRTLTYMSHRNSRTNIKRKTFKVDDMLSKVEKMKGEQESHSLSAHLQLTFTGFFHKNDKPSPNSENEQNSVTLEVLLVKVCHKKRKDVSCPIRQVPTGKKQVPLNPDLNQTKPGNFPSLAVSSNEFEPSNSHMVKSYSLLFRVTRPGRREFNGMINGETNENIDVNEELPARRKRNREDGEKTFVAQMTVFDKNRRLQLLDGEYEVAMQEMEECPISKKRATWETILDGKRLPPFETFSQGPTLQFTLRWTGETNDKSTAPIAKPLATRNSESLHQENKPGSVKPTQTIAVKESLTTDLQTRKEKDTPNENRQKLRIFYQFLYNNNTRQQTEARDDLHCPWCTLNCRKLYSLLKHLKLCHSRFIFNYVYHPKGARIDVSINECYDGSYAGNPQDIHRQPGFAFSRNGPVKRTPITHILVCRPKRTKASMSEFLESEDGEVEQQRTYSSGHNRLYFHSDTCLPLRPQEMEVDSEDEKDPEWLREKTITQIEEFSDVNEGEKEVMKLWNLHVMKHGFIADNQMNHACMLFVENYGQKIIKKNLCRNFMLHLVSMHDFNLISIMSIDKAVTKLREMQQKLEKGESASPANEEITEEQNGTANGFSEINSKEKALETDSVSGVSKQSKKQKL", "sequence (Q6ZN18 whole entry partner)": "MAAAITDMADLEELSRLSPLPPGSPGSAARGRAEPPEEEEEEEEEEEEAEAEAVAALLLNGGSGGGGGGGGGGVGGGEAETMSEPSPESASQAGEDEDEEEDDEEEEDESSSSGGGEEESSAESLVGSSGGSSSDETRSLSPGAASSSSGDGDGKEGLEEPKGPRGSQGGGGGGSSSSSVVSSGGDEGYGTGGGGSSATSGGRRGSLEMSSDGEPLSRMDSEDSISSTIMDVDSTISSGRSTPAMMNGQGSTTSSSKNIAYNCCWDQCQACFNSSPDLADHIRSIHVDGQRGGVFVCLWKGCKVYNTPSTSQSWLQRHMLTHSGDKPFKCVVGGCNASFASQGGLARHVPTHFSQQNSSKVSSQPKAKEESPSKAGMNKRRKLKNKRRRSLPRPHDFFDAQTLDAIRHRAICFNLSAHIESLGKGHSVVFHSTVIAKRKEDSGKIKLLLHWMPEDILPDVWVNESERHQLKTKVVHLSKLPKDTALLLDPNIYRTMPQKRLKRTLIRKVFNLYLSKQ", "sequence (Q09028 whole entry partner)": "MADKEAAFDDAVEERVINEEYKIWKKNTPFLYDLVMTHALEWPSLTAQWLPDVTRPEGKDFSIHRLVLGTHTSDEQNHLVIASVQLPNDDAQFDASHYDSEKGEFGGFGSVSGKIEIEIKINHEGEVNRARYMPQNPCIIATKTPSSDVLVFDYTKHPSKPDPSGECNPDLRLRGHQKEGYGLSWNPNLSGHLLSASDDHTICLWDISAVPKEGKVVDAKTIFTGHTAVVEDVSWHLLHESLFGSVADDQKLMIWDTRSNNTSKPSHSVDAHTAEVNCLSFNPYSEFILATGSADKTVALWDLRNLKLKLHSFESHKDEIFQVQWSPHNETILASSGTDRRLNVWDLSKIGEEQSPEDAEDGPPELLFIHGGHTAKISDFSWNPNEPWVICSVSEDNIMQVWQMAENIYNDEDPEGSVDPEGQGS", "test": "Hot Spot HMT assay, inhibition of PRC2 enzymatic activity", "format": "biochemical", "conditions": "10 nM PRC2 complex, 1 μM 3H-SAM, core histone H3, 10-point dose-response", "how_it_was_run": "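Five-subunit PRC2 complex (EZH2, EED, SUZ12, AEBP2, RbAp48; 10 nM) preincubated 20 min at 30° C with compound (top 1.0 μM) and 0.05 mg/ml core histone H3 in Tris-HCl, 1% DMSO. Started with 1 μM [3H]SAM, 1 hr at 30° C; tritiated H3 measured by filter binding and scintillation.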"}, "HBG2 mRNA": {"system": "HBG2 mRNA", "test": "HBG2 mRNA levels by RT-qPCR in differentiated CD34+ cells", "format": "cell-based, human", "conditions": "7-day treatment", "source_text": "(§1) Cell Culture and differentiation protocol. Human bone marrow derived CD34+ cells from healthy donors were purchased from StemCell (#70002.2). The CD34+ cells were differentiated using the STEMdiff™ Erythroid kit (StemCell #100-0074) according to manufacturer's instructions. The CD34+ cells were differentiated for 14 days, and the differentiation medium consisted of StemSpan™ SFEM II media and 10% of STEMdiff™ Erythroid Supplement E2 (10×). The CD34+ cells were thawed and plated in a 12-well plate (Corning #3512) at a density of 40,000 cells/well in 1 mL of differentiation media. 100 μL of STEMdiff™ Erythroid Supplement E2 (10×) was added to each well on Day 2, 4, 9 and 11 during differentiation. On day 7, cells were passaged and replated at a density of 167,000 cells/well in a 12-well plate. Flow cytometry was performed every 7 days to assess the stages of differentiation using anti-human CD71 and anti-human glycophorin A (CD235a) antibody (StemCell #60106AZ; #60152FI).\n(§2) Treatment of differentiated CD34+ cells with compound Example 32 or hydroxyurea (HU). After 14 days of differentiation, cells were plated in a 12-well plate at a density of 150,000 cells/well in 1 mL differentiation media in quadruplets. The next day, cells were treated with vehicle, 7 concentrations of compound Example 32 in concentrations ranging from 15.625 nM to 1 μM ([…] serial dilution) and 20 μM of HU. 100 μL of STEMdiff™ Erythroid Supplement E2 (10×) was added to each well on Day 2 and 4. Cells were treated with vehicle, compound Example 32, or HU for 7 days and were then harvested for RT-qPCR and flow cytometry.\n(§3) RNA extraction and RT-qPCR analysis. The cell pellets harvested for mRNA analysis were first washed once with PBS and then resuspended in 600 μL of RLT lysis buffer (from the Qiagen kit) supplemented with 1% of beta-mercaptoethanol (Sigma-Aldrich #M6250). […] The extracted RNA was then quantified using a NanoDrop™ 8000 Spectrophotometer (ThermoFisher #ND8000-GL, software version 2.3.2). […]"}, "[2]": {"system": "bone marrow derived CD34+ cells differentiated into erythroid progenitor cells", "test": "Percentage of F cells (fetal hemoglobin containing cells) by flow cytometry in differentiated CD34+ cells", "format": "cell-based, human", "conditions": "7-day treatment; for fold increase in % F cells: vs vehicle", "source_text": "as §1, §2\nFlow Cytometry. The cell pellets harvested for flow cytometry analysis were collected in a V-shaped 96-well polypropylene plate (ThermoFisher #249944). The cells were washed with PBS and resuspended in 100 μL of PBS. The cells were first stained with eFluor 450 viability dye (diluted 1:250 in cold PBS; Invitrogen #65-0863-14) for 5 minutes on ice in the dark followed by incubation in Fc receptor blocking solution for 10 minutes (BioLegend #422302). […] Cells were washed twice and resuspended in FACS buffer and then analyzed by flow cytometry. Data was acquired using SONY SA3800 cytometer (software version 2.0.4.13263) and analyzed using FlowJo.\nBone marrow derived CD34+ cells from two healthy human donors (donor A and donor B) were differentiated into erythroid progenitor cells (erythroblasts) expressing Glycophorin A and CD71. Fourteen-day differentiated cells were then treated with vehicle (veh), different concentrations of compound Example 32, or 20 μM HU for 7 days and cells were analyzed for increase in fetal hemoglobin levels at both mRNA and protein levels. […]"}, "HBG1 mRNA": {"system": "HBG1 mRNA", "test": "HBG1 mRNA levels by RT-qPCR in differentiated CD34+ cells", "format": "cell-based, human", "conditions": "7-day treatment", "source_text": "as §1, §2, §3"}, "[3]": {"conditions": "Donor A, normalized to RPL27, relative to vehicle"}, "[4]": {"conditions": "Donor B, normalized to RPL27, relative to vehicle"}}, "data": [{"smiles": "Cc1cc(CN(C)C)ccc1-c1cnc(NCc2c(F)ccc3c2CCO3)n2cc(C#N)nc12", "note": "[Example 32]", "values": [{"measurement": "IC50", "setting": "[1]", "value": "100 to 500", "unit": "nM"}, {"measurement": "fold increase in HBG2 mRNA levels", "setting": "HBG2 mRNA; [3]", "value": 9, "unit": "fold"}, {"measurement": "fold increase in HBG2 mRNA levels", "setting": "HBG2 mRNA; [4]", "value": 4, "unit": "fold"}, {"measurement": "% F cells (live cells with fetal hemoglobin)", "setting": "[2]; donors A and B, 14-day differentiated cells", "value": "30-40%"}, {"measurement": "fold increase in % F cells", "setting": "[2]; donors A and B, 14-day differentiated cells, 15.625 nM to 1 μM", "value": "2.6-2.7 fold"}, {"measurement": "fold increase in HBG1 mRNA levels", "setting": "HBG1 mRNA; [3]", "value": 4, "unit": "fold"}, {"measurement": "fold increase in HBG1 mRNA levels", "setting": "HBG1 mRNA; [4]", "value": 4, "unit": "fold"}]}, {"smiles": "NC(=O)NO", "note": "[HU, hydroxyurea, reference compound]", "values": [{"measurement": "fold increase in HBG2 mRNA levels", "setting": "HBG2 mRNA; Donor A, 20 μM, relative to vehicle", "value": 2.7, "unit": "fold"}, {"measurement": "fold increase in % F cells", "setting": "[2]; Donor A, 20 μM", "value": 1.9, "unit": "fold"}, {"measurement": "fold increase in % F cells", "setting": "[2]; Donor B, 20 μM", "value": 1.3, "unit": "fold"}, {"measurement": "fold increase in HBG1 mRNA levels", "setting": "HBG1 mRNA; Donor B, 20 μM, relative to vehicle", "value": 1.7, "unit": "fold"}]}]}
